In patent US5739278A, “Compositions for protein tyrosine phosphatases” (University of Washington, priority 1995, dated 1998):

How the values were obtained:
Test in all cases: Phosphatase assay with ENDY(P)INASL as substrate
Type in all cases: biochemical
CD45 = molecular target: T1, CD45 (Homo sapiens, UniProt P08575)
T1 construct: CD45 were purified from placenta and spleen, respectively; from tissue; host or cells: spleen
T1 sequence (P08575 26-1306): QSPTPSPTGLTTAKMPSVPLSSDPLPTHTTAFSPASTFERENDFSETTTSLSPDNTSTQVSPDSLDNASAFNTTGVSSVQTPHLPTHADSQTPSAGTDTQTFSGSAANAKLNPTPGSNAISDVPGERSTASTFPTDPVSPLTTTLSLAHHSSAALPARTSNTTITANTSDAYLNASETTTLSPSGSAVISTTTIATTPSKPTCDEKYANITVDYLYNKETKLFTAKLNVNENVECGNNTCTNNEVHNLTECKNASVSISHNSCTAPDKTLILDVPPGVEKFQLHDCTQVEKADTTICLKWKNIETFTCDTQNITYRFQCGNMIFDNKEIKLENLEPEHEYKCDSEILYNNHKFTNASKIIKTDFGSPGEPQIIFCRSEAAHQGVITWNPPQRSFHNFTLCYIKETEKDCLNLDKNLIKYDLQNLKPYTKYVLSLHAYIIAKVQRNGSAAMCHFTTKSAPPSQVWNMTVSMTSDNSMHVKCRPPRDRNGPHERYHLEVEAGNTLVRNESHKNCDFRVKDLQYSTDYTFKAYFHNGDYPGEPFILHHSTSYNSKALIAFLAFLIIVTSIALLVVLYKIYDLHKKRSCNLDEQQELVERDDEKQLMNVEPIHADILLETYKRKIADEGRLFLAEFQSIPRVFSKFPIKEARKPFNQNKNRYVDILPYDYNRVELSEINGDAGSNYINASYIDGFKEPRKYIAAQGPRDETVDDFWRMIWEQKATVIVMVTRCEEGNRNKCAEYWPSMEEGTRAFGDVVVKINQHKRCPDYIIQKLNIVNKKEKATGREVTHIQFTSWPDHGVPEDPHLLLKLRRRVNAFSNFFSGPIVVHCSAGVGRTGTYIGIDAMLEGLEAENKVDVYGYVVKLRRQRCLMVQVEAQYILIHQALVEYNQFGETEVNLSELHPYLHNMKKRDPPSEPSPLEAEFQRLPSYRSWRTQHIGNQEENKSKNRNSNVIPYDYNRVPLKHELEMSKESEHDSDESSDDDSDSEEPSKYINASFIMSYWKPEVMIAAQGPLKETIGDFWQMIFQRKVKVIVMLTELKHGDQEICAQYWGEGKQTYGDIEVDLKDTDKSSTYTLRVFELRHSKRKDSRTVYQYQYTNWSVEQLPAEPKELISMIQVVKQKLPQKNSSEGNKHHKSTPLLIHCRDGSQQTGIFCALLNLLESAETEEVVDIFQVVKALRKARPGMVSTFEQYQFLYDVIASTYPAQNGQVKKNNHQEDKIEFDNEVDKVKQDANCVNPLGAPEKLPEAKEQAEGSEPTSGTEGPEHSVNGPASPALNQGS
Protocol: (§1) The tyrosine phosphatases TC.PTP, TCΔC11.PTP, and RPTPα were purified from infected Sf9 cells as described recently (Zander et al., Biochemistry 30: 6964-6970, 1991; Daum et al., J. Biol. Chem. 266: 12211-12215, 1991). The 37 kDa form of PTP1B and CD45 were purified from placenta and spleen, respectively (according to Tonks et al., J. Biol. Chem. 263: 6722-6730, 1988; Tonks et al., Biochemistry 27: 8695-8701, 1988).
(§2) Phosphatase assays with ENDY(P)INASL were performed in buffer M6. Aliquots of 30 μl or 60 μl containing the phosphopeptide, the phosphatase (-beads) and effectors were incubated for 10 minutes at 30° C. The reaction was stopped by adding 200 μl of a suspension of 10% activated, acid-washed Norit A charcoal (v/v) in 0.9N HCl, 0.1M pyrophosphate and 2 mM NaH2 PO4 (according to Streuli et al., Proc. Natl. Acad. Sci. USA 86: 8698-8702, 1989). The mixture was cleared by 10-minute centrifugation and the radioactivity of 150 μl of the supernate was determined. Assays with MBP and RCML were performed as described in Tonks et al., J. Biol. Chem. 263: 6722-6730, 1988. Protein concentration was determined with BSA as standard (Bradford, Anal. Biochem. 72: 248-254, 1976).

TCΔC11.PTP = molecular target: T2, TCΔC11.PTP (Homo sapiens, UniProt P17706)
T2 construct: both the wild type and truncated forms of the T-cell phosphatase; made in house; host or cells: Sf9 cells (baculovirus)
T2 sequence (P17706 1-317 limits assumed): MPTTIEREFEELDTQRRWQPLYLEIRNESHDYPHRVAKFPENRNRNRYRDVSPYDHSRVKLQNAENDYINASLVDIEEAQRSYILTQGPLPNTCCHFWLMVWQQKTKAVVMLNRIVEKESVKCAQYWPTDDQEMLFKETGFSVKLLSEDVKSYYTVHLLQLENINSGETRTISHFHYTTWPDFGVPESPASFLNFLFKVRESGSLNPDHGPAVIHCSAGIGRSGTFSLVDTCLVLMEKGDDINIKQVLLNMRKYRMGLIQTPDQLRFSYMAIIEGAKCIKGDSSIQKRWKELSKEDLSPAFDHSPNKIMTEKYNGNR
Protocol: as §1, §2

TC.PTP = molecular target: T3, TC.PTP (Homo sapiens, UniProt P17706); details: TC.PTP
T3 construct: made in house; host or cells: Sf9 cells (baculovirus)
T3 sequence (P17706 1-415): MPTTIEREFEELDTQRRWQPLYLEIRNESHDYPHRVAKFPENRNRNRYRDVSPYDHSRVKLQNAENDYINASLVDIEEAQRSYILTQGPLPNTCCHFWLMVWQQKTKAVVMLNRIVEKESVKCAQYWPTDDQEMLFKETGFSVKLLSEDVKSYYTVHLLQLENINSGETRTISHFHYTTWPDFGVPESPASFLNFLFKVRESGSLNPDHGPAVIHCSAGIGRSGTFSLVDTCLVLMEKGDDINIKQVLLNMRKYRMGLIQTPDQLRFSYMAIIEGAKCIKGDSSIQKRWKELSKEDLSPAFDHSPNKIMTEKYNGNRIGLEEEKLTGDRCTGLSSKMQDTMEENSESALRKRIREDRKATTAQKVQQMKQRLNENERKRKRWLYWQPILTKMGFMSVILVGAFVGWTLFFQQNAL
Protocol: as §1, §2

RPTPα = molecular target: T4, RPTPα (Homo sapiens, UniProt P18433)
T4 construct: made in house; host or cells: Sf9 cells (baculovirus)
T4 sequence (P18433 20-802): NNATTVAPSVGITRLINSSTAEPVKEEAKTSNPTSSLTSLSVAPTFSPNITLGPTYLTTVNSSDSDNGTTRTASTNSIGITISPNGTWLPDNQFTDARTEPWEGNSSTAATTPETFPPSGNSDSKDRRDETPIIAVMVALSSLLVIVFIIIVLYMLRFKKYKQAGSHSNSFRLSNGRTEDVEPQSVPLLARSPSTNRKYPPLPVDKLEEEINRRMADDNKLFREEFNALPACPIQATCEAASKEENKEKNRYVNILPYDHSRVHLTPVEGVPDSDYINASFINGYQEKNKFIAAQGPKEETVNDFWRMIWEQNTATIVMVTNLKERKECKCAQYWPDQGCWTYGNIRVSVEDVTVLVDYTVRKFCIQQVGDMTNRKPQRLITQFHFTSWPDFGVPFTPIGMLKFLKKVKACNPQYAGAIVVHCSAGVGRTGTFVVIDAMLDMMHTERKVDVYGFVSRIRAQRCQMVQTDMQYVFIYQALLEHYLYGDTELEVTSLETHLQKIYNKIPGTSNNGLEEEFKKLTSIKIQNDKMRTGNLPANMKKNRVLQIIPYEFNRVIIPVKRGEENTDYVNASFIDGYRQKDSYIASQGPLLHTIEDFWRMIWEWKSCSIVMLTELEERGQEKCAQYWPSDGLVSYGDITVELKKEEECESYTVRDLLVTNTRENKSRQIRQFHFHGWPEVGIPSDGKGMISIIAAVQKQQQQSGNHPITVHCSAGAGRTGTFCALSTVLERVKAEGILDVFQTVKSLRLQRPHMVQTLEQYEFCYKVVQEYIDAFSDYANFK
Protocol: as §1, §2

PTP1B = molecular target: T5, PTP1B (Homo sapiens, UniProt P18031)
T5 construct: The 37 kDa form of PTP1B; from tissue; host or cells: placenta
T5 sequence (P18031 1-321 limits assumed): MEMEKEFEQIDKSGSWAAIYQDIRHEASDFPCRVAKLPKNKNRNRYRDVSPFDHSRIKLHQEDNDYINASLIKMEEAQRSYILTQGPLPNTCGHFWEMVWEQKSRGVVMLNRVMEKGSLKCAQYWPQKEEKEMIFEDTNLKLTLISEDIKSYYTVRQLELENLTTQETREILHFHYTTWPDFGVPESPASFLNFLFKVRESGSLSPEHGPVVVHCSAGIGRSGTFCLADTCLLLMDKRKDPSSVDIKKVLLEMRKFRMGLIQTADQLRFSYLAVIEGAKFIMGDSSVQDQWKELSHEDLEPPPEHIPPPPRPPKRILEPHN
Protocol: as §1, §2

With heparin the “Phosphatase activity in percent of the value obtained in the absence of effectors” value (from here on “Phosphatase activity in percent”) (CD45; effector 0.01 μM) was 8%, the “Phosphatase activity in percent” value (CD45; effector 0.1 μM) was 0% and the “Phosphatase activity in percent” value (CD45; effector 1.0 μM) was 0%. For the same substance, the “Phosphatase activity in percent” value (TCΔC11.PTP; effector 0.01 μM) was 88%, the “Phosphatase activity in percent” value (TCΔC11.PTP; effector 0.1 μM) was 4% and the “Phosphatase activity in percent” value (TCΔC11.PTP; effector 1.0 μM) was 0%. The “Phosphatase activity in percent” value (TC.PTP; effector 0.01 μM) was 8%, the “Phosphatase activity in percent” value (TC.PTP; effector 0.1 μM) was 1% and the “Phosphatase activity in percent” value (TC.PTP; effector 1.0 μM) was 0%. For the same substance, the “Phosphatase activity in percent” value (RPTPα; effector 0.01 μM) was 82%, the “Phosphatase activity in percent” value (RPTPα; effector 0.1 μM) was 40% and the “Phosphatase activity in percent” value (RPTPα; effector 1.0 μM) was 19%. The “Phosphatase activity in percent” value (PTP1B; effector 0.01 μM) was 91%, the “Phosphatase activity in percent” value (PTP1B; effector 0.1 μM) was 0% and the “Phosphatase activity in percent” value (PTP1B; effector 1.0 μM) was 0%.
